System: retinal pigmented epithelium (RPE) wild-type (WT) cells
Assay: Effect of calcium and red-light irradiation on NO levels (DAF-FM DA integrated fluorescence)
Assay type: cell-based
Protocol: In this experiment, the influence of Ca^2+ on nitric oxide (NO) levels was determined by measuring the integrated fluorescence of the reaction product of NO with diaminofluorescein-FM diacetate (DAF-FM DA, C25H18F2N2O7).
Procedurally, the experiment was carried out using a 96 well plate, with either ionic calcium (Ca^2+) or encapsulated calcium (CaCD) added to each of the wells. The concentration of calcium in the wells as CaCl2 was 1.67 mM, and the concentration as CaCD was 2.79 mM stock (or 5 μM final concentration), in a total volume of 300 μL in each well. The number of RPE-WT cells was approximately 175,000 per well. Two reference samples for CaCl2 and CaCD were used to compare relative changes upon exposure to red-light in the presence of Ca^2+. The RPE cells were incubated with DAF-FM DA for 30 minutes at 37 degrees C. and the fluorescence was immediately measured (as time-point 0 minutes) to obtain a ‘background’ baseline.

[Ca+2].[Cl-].[Cl-] [Ca, CaCl2]
Intensity (integrated fluorescence of DAF-FM DA, NO level) (WT in PBS + Ca (no red light), Time 9.09 (minutes)): 85.40
Intensity (integrated fluorescence of DAF-FM DA, NO level) (WT in PBS + Ca (no red light), Time 28.63 (minutes)): 92.76
Intensity (integrated fluorescence of DAF-FM DA, NO level) (WT in PBS + Ca (no red light), Time 75.14 (minutes)): 100.20
Intensity (integrated fluorescence of DAF-FM DA, NO level) (WT in PBS + Ca (no red light), Time 307.24 (minutes)): 191.01
Intensity (integrated fluorescence of DAF-FM DA, NO level) (WT in PBS + Ca (no red light), Time 319.44 (minutes)): 198.35
Intensity (integrated fluorescence of DAF-FM DA, NO level) (WT in PBS + Ca (no red light), Time 431.58 (minutes)): 271.80
Intensity (integrated fluorescence of DAF-FM DA, NO level) (WT in PBS + Ca (no red light), Time 460.95 (minutes)): 276.75
Intensity (integrated fluorescence of DAF-FM DA, NO level) (WT in PBS + Ca (no red light), Time 770.49 (minutes)): 489.70
Intensity (integrated fluorescence of DAF-FM DA, NO level) (WT in PBS + Ca (no red light), Time 799.74 (minutes)): 509.28
Intensity (integrated fluorescence of DAF-FM DA, NO level) (WT in PBS + Ca + RL15, Time 9.09 (minutes)): 85.40
Intensity (integrated fluorescence of DAF-FM DA, NO level) (WT in PBS + Ca + RL15, Time 28.61 (minutes)): 95.20
Intensity (integrated fluorescence of DAF-FM DA, NO level) (WT in PBS + Ca + RL15, Time 70.2 (minutes)): 105.06
Intensity (integrated fluorescence of DAF-FM DA, NO level) (WT in PBS + Ca + RL15, Time 307.22 (minutes)): 193.44
Intensity (integrated fluorescence of DAF-FM DA, NO level) (WT in PBS + Ca + RL15, Time 316.95 (minutes)): 203.22
Intensity (integrated fluorescence of DAF-FM DA, NO level) (WT in PBS + Ca + RL15, Time 428.93 (minutes)): 296.18
Intensity (integrated fluorescence of DAF-FM DA, NO level) (WT in PBS + Ca + RL15, Time 460.74 (minutes)): 303.57
Intensity (integrated fluorescence of DAF-FM DA, NO level) (WT in PBS + Ca + RL15, Time 765.45 (minutes)): 506.76
Intensity (integrated fluorescence of DAF-FM DA, NO level) (WT in PBS + Ca + RL15, Time 799.54 (minutes)): 533.67
Intensity (integrated fluorescence of DAF-FM DA, NO level) (WT in PBS + Ca + RL30, Time 11.6 (minutes)): 68.33
Intensity (integrated fluorescence of DAF-FM DA, NO level) (WT in PBS + Ca + RL30, Time 33.6 (minutes)): 75.70
Intensity (integrated fluorescence of DAF-FM DA, NO level) (WT in PBS + Ca + RL30, Time 72.9 (minutes)): 73.36
Intensity (integrated fluorescence of DAF-FM DA, NO level) (WT in PBS + Ca + RL30, Time 308 (minutes)): 83.69
Intensity (integrated fluorescence of DAF-FM DA, NO level) (WT in PBS + Ca + RL30, Time 320.3 (minutes)): 86.16
Intensity (integrated fluorescence of DAF-FM DA, NO level) (WT in PBS + Ca + RL30, Time 427 (minutes)): 237.64
Intensity (integrated fluorescence of DAF-FM DA, NO level) (WT in PBS + Ca + RL30, Time 466 (minutes)): 240.17
Intensity (integrated fluorescence of DAF-FM DA, NO level) (WT in PBS + Ca + RL30, Time 770.9 (minutes)): 462.87
Intensity (integrated fluorescence of DAF-FM DA, NO level) (WT in PBS + Ca + RL30, Time 799.9 (minutes)): 494.65
Intensity (integrated fluorescence of DAF-FM DA, NO level) (WT in PBS + Ca + RL60, Time 11.52 (minutes)): 87.84
Intensity (integrated fluorescence of DAF-FM DA, NO level) (WT in PBS + Ca + RL60, Time 33.54 (minutes)): 92.78
Intensity (integrated fluorescence of DAF-FM DA, NO level) (WT in PBS + Ca + RL60, Time 72.65 (minutes)): 105.07
Intensity (integrated fluorescence of DAF-FM DA, NO level) (WT in PBS + Ca + RL60, Time 307.26 (minutes)): 188.57
Intensity (integrated fluorescence of DAF-FM DA, NO level) (WT in PBS + Ca + RL60, Time 319.42 (minutes)): 200.79
Intensity (integrated fluorescence of DAF-FM DA, NO level) (WT in PBS + Ca + RL60, Time 429.53 (minutes)): 223.01
Intensity (integrated fluorescence of DAF-FM DA, NO level) (WT in PBS + Ca + RL60, Time 463.82 (minutes)): 225.53
Intensity (integrated fluorescence of DAF-FM DA, NO level) (WT in PBS + Ca + RL60, Time 768.4 (minutes)): 445.79
Intensity (integrated fluorescence of DAF-FM DA, NO level) (WT in PBS + Ca + RL60, Time 799.9 (minutes)): 480.01
DAF-FM DA NO profile (ionic calcium wells, over the entire 800 minutes): continued to increase
